Experimental data as given in US8012929B2, “Peptides directed for diagnosis and treatment of amyloid-associated diseases” (Tel Aviv University Future Technology Development L.P., priority 2002, dated 2011).
Square brackets hold non-standard residues; d marks the D form. Peptide text beside a SMILES is read from it. Aib = CC(C)(N)C(=O)O

Tests used:
[1] = target: T1, β-amyloid1-42 globulomers (Homo sapiens, UniProt P05067); test: β-amyloid1-42 globulomer formation (6E10 immunoblot, densitometry); type: biochemical; settings: 0.13 mM β-amyloid, 1:5 to 1:20 molar ratio, 18 hours at 37° C.
T1 construct: β-amyloid monomers (0.4 mM) were produced by dissolving the 1-42 peptide in 1,1,1,3,3,3-hexafluoroisopropanol; purchased Bachem (Bubendorf Switzerland)
Excerpt: […] Solutions were then separated using a 15% Tris-Tricine gel, and transferred to a PVDF membrane, which was screened with a mouse anti β-amyloid monoclonal antibody (6E10; Signet, Dedham, Mass.)

CYP450 1A2 = target: T2, CYP450 1A2 (Homo sapiens, UniProt P05177); test: Human CYP450 screen 1A2; type: in vitro ADME
T2 sequence (P05177 1-516): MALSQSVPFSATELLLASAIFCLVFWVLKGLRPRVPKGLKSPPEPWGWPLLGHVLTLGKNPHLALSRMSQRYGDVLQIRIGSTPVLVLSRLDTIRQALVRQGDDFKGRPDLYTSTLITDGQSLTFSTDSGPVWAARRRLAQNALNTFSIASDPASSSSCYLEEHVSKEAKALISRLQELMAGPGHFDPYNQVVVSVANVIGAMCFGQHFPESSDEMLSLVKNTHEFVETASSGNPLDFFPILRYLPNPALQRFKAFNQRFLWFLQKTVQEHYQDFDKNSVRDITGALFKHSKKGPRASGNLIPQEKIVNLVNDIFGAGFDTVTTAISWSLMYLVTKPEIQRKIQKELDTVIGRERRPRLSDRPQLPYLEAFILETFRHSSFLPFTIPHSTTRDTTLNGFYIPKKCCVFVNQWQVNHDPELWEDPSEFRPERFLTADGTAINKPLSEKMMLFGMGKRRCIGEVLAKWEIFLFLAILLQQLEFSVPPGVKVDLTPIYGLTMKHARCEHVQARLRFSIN
Excerpt: (§1) For the metabolic stability assay, Human cytochrom P450 (CYP450) screens were used. The cytochrom P450 isoenzymes, which are located in the intestines, liver, lung, kidney and brain, are involved in important drug interactions. Drug metabolism occurs in two phases—Phase I involves oxidation, reduction, and hydrolysis. Phase II involves synthesis and conjugation. The CYP 450 isoenzymes are involved in Phase I oxidative reactions. CYP 450 interactions generally result from one of two processes—Induction, where a substance stimulates the synthesis of the enzyme and metabolic capacity is increased, and inhibition, where competitive binding at an enzyme's binding site(s) occurs. A drug with a high affinity for an enzyme will slow the metabolism of any low affinity drug. CYP 3A3/4 is the most abundant CYP 450 isoenzyme in humans and is responsible for the metabolism of the widest range of drugs/substances. (CYP450) screens used were 1A2, 2C9, 2C19, 2D6 and 3A4.

CYP450 2C9 = CYP450 2C9 (Homo sapiens, UniProt P11712); test: Human CYP450 screen 2C9; type: in vitro ADME
Excerpt: as §1

in vivo = settings: CD-1, mouse
Description: Animals were treated following a 4 hour fast, with water ad libitum, and fed 2 hours after administration. Thereafter, animals were sacrificed at different time intervals (5 minutes-8 hours; 3 animals in each group, at every time interval were sacrificed by sodium pentobarbital anesthesia followed by exanguination) and blood (plasma), brain, liver, kidney and pancreas were collected and later analyzed. Plasma and brain tissue samples were analyzed by high-performance liquid chromatography with tandem mass spectrometry (LC-MS/MS).
In case of brain tissue, only AUC0-4 was calculated. All parameters were calculated using the software PK solutions Version 2.0 for Noncompartmental Pharmacokinetics Data analysis (Summit Research Services, Montrose, Colo.).

[2] = inhaled or intranasal, 20 mg/kg

T1 sequence (P05067 672-713): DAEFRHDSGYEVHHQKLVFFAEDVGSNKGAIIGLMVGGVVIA
Sequence of CYP450 2C9 (P11712 whole entry): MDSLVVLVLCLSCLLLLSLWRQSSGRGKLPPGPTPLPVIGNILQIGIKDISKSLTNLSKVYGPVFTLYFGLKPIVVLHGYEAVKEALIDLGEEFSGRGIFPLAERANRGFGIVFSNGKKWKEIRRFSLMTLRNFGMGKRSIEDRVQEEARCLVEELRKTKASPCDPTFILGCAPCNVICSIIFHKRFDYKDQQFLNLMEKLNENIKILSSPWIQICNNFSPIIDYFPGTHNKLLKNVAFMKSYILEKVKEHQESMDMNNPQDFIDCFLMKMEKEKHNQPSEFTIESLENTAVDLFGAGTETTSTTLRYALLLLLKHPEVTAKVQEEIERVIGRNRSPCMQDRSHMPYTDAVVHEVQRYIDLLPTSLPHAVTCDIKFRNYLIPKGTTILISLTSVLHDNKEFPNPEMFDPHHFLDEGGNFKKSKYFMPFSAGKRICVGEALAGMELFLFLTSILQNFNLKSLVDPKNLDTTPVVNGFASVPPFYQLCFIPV

In the case of CC(C)(NC(=O)[C@H](N)Cc1c[nH]c2ccccc12)C(=O)O [D-Trp-Aib] (H-[dW]-[Aib]-OH), the “amount of globulomers (densitometer analysis)” value [1] is reported as “about 45 % of the control”, the “activity in CYP450 screen” value (CYP450 1A2) is reported as “None of the results met significance criteria” and the “activity in CYP450 screen” value (CYP450 2C9) is reported as “None of the results met significance criteria”. For the same compound, the half-life (in vivo) was 1.1 to 1.2 h, the bioavailability (in vivo; inhaled or intranasal) was 65.5% and the AUC(0-inf) (in vivo; [2]) was 11400 ng·h/mL. It also gave an AUC(0-t) (in vivo; [2]) of 10600 ng·h/mL, an MRT (in vivo; [2]) of 0.98 h and a half-life (in vivo; [2]) of 1.29 h. It also gave an AUC(0-inf) (in vivo; iv, 50 mg/kg) of 40600 ng·h/mL, an AUC(0-t) (in vivo; iv, 50 mg/kg) of 40600 ng·h/mL and an MRT (in vivo; iv, 50 mg/kg) of 0.44 h. For the same compound, the Vd (in vivo; iv, 50 mg/kg) was 2.16 L/kg, the bioavailability (in vivo; iv, 50 mg/kg) was 100% and the clearance (in vivo; iv, 50 mg/kg) was 20.5 mL/min/kg. For the same compound, the half-life (in vivo; iv, 50 mg/kg) was 1.22 h, the AUC(0-inf) (in vivo; po, 50 mg/kg) was 15700 ng·h/mL and the AUC(0-t) (in vivo; po, 50 mg/kg) was 15700 ng·h/mL. It also gave a Cmax (in vivo; po, 50 mg/kg) of 9810 ng/mL, an MRT (in vivo; po, 50 mg/kg) of 1.29 h and a Tmax (in vivo; po, 50 mg/kg) of 1 h. The bioavailability (in vivo; po, 50 mg/kg) was 38.7% and the half-life (in vivo; po, 50 mg/kg) was 1.07 h.
